Experiments:
[1] = tested on: export of VSV-G protein from the ER; format: cell-based; conditions: for morphological effect on VSV-G export/transport: 45 min at 32°C
[2] = tested on: ER to Golgi transport of VSV-G protein; format: cell-based
[3] = tested on: export of VSV-G protein from the ER; conditions: cited from earlier work

AlCl3
morphological effect on VSV-G export/transport [1]: did not inhibit | effect on processing of VSV-G to the endo HR form [2]: no effect

C/C=C(/C)C(=O)O[C@H]1C(C)=C2[C@H]([C@@H]1OC(=O)CCCCCCC)[C@@](C)(OC(C)=O)C[C@H](OC(=O)CCC)[C@@]1(O)[C@H]2OC(=O)[C@@]1(C)O [thapsigargan]
effect on VSV-G export in vitro [1]: no effectof the drug

guanosine-5'-O-(3-thiophospbate) [GTPTS]
VSV-G containing punctate intermediates that contain rab1B [1]: < 10% | morphological effect on VSV-G export/transport [1]: concentrated in numerous small, punctate structures

C=C1[C@@H](O)[C@@H]2O[C@]3(CC[C@H](/C=C/[C@@H](C)[C@@H]4CC(C)=C[C@@]5(O[C@H](C[C@@](C)(O)C(=O)O)CC[C@H]5O)O4)O3)CC[C@H]2O[C@@H]1[C@@H](O)C[C@H](C)[C@H]1O[C@@]2(CCCCO2)CC[C@H]1C [OKA, okadaic acid]
effect on VSV-G protein exit from the ER [3]: potently inhibit VSV-G protein exit from the ER

Source: paper PMC2289734 (The Journal of Cell Biology, 1992)
